Assay results as given in patent publication US11306063B2, “Heterocyclic naphthoquinones derivatives for use in the treatment of cancers including Cushing disease” (Commissariat a l'Energie Atomique et aux Energies …, priority 2016, dated 2022).
Like-named read-outs stand apart in the source and are kept apart here.

Assays:
[1] = target: T1, USP2^CD (purified catalytic domain of USP2) (Homo sapiens, UniProt O75604); test: Inhibition of purified USP2^CD enzymatic activity (Ub-AMC or Ub-Rho substrate); assay type: biochemical; details: for inhibition at 0.01 µM: 0.01 μM compound; for inhibition at 0.05 µM: 0.05 μM compound; for inhibition at 0.1 µM: 0.1 μM compound; for inhibition at 0.5 µM: 0.5 μM compound; for inhibition at 1 µM: 1 μM compound; for inhibition at 5 µM: 5 μM compound; for inhibition at 10 µM: 10 μM compound; for inhibition at 25 µM: 25 μM compound; for inhibition at 50 µM: 50 μM compound; for IC50: Ub-AMC substrate at 1 μM, Table 2b, read-out: IC50 USP2 CD
T1 construct: The purified catalytic domain of USP2 (USP2^CD, in-house purified); His; made in house; host or cells: E. coli BL21 Gold
T1 sequence (O75604 267-599 limits assumed): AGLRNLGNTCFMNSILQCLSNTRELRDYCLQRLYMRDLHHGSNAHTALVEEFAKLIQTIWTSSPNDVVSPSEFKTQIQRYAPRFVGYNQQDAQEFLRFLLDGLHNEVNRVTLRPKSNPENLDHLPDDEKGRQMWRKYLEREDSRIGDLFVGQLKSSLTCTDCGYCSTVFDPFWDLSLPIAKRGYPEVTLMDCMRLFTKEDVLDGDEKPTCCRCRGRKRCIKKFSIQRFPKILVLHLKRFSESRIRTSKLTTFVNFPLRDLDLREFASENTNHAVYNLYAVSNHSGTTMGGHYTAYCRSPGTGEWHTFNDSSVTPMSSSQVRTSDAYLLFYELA
Protocol: (§1) USP2CD or USP8CD were expressed in E. coli BL21 Gold. Cells were grown in LB Miller to mid-log phase and induced by addition of 0.5 mM IPTG for USP2CD for 5 h at 20° C., while 1 mM IPTG was added for USP8CD for 3 h at 37° C. Then, cells were harvested and frozen at −80° C.
For His-tagged USP2CD, cells were resuspended in buffer C (10 mM TRIS pH 8.0, 100 mM NaCl, 10 mM Imidazole) and lysed using a sonicator. The lysate was clarified by centrifugation and applied to Ni Sepharose6 Fast Flow resin (GE Healthcare). The resin was sequentially washed with buffer C, then with buffer C containing 50 mM Imidazole. Protein sample was eluted from the resin using buffer C containing 250 mM Imidazole. The eluted protein was buffer exchanged by gel-filtration on a Superdex 200 10/300 GL column (GE Healthcare) equilibrated in Buffer D (15 mM Bis-TRIS pH 6.0, 100 mM NaCl, 1 mM dithiothreitol (DTT)).
(§2) Enzymatic assay was performed in a HEPES buffer (50 mM pH7.6 1 mM DTT, 2% glycerol, 0.5 mM EDTA) or in a Tris buffer (40 mM pH7.4 1 mM DTT, 5% glycerol, 0.05 mg/ml BSA) respectively, following manufacturer's instructions. Compounds were added to the reaction mixture just prior to the substrate. The enzymatic reaction kinetics was monitored through the apparition of fluorescence due to the hydrolysis of the peptidyl Ub-AMC or Ub-Rho bound over 20 or 30 minutes.
(§3) Medium value out of duplicates is reported.

[2] = target: T2, USP8^CD (purified catalytic domain of USP8) (Homo sapiens, UniProt P40818); test: Inhibition of purified USP8^CD enzymatic activity (Ub-AMC or Ub-Rho substrate); assay type: biochemical; details: for inhibition at 0.01 µM: 0.01 μM compound; for inhibition at 0.05 µM: 0.05 μM compound; for inhibition at 0.1 µM: 0.1 μM compound; for inhibition at 0.5 µM: 0.5 μM compound; for inhibition at 1 µM: 1 μM compound; for inhibition at 5 µM: 5 μM compound; for inhibition at 10 µM: 10 μM compound; for inhibition at 25 µM: 25 μM compound; for inhibition at 50 µM: 50 μM compound; for IC50: read-out: IC50 USP8 CD
T2 construct: the purified catalytic domain of USP8 (USP8^CD, in-house purified); made in house; host or cells: E. coli BL21 Gold
T2 sequence (P40818 777-1109 limits assumed): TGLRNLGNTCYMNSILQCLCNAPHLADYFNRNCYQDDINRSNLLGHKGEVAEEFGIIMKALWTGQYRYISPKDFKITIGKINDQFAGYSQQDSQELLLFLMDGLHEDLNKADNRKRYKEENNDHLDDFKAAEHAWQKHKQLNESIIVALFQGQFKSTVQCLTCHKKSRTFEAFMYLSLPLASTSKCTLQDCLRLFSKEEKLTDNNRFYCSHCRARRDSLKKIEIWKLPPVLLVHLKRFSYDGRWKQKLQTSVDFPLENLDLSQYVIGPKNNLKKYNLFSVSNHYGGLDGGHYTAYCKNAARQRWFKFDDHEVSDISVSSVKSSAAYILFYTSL
Protocol: as §1
For His-tagged USP8CD, cells were resuspended in buffer A (50 mM TRIS pH 8.0, 500 mM NaCl, 2 mM Imidazole) and lysed using a sonicator. The lysate was clarified by centrifugation and applied to Ni Sepharose6 Fast Flow resin (GE Healthcare). The resin was sequentially washed first with buffer A containing 10 mM Imidazole then with buffer A containing 20 mM Imidazole, and finally with buffer A containing 50 mM Imidazole. Protein sample was eluted from the resin using buffer A containing 300 mM Imidazole. The eluted protein was buffer exchanged by gel-filtration on a Superdex 200 10/300 GL column (GE Healthcare) equilibrated in Buffer B (20 mM HEPES pH 7.5, 300 mM NaCl, 2 mM dithiothreitol (DTT)).
as §2, §3

[3] = Ub-AMC substrate at 1 μM, Table 2b

Row | inhibition at 0.01 µM ([1]; Table 1c) [%] | inhibition at 0.05 µM ([1]; Table 1c) [%] | inhibition at 0.1 µM ([1]; Table 1c) [%] | inhibition at 0.5 µM ([1]; Table 1c) [%] | inhibition at 1 µM ([1]; Table 1b) [%] | inhibition at 1 µM ([1]; Table 1c) [%] | inhibition at 5 µM ([1]; Table 1b) [%] | inhibition at 5 µM ([1]; Table 1c) [%] | inhibition at 10 µM ([1]; Table 1c) [%] | inhibition at 25 µM ([1]; Table 1b) [%] | inhibition at 50 µM ([1]; Table 1b) [%] | IC50 [1] [µM] | inhibition at 0.01 µM ([2]; Table 1d) [%] | inhibition at 0.05 µM ([2]; Table 1d) [%] | inhibition at 0.1 µM ([2]; Table 1d) [%] | inhibition at 0.5 µM ([2]; Table 1d) [%] | inhibition at 1 µM ([2]; Table 1b) [%] | inhibition at 1 µM ([2]; Table 1d) [%] | inhibition at 5 µM ([2]; Table 1b) [%] | inhibition at 5 µM ([2]; Table 1d) [%] | SMILES | also measured
1 | -8 | -12 | 2 | 26 | -9 | 5 | 22 | 8 | 17 | 53 | 50 | > 10 | -7 | -13 | -23 | 18 | 62 | 31 | 68 | 52 | COc1ccc(S(=O)(=O)Cc2nc3c(nc2CS(=O)(=O)c2ccc(OC)cc2)C(=O)c2ccccc2C3=O)cc1 [PCR7994] | inhibition at 10 µM ([2]; Table 1d): 73%; inhibition at 25 µM ([2]; Table 1b): 91%; inhibition at 50 µM ([2]; Table 1b): 100%; IC50 [2, 3]: 5 µM
2 | -11 | -16 | -13 | 11 | 24 | -17 | 51 | 20 | 27 | 63 | 76 | > 10 | 19 | -2 | 26 | 26 | 54 | 44 | 94 | 100 | CCCCCS(=O)(=O)Cc1nc2c(nc1CS(=O)(=O)CCCCC)C(=O)c1ccccc1C2=O [VIN6077] | inhibition at 10 µM ([2]; Table 1d): 91%; inhibition at 25 µM ([2]; Table 1b): 101%; inhibition at 50 µM ([2]; Table 1b): 100%; IC50 [2, 3]: 1.2 µM
3 | -19 | -14 | 13 | -1 | 20 | 9 | 25 | -3 | 11 | 21 | 18 | > 10 | -22 | -5 | -9 | 17 | 53 | 44 | 61 | 46 | O=C1c2ccccc2C(=O)c2nc(CS(=O)(=O)c3ccc4c(c3)OCCO4)c(CS(=O)(=O)c3ccc4c(c3)OCCO4)nc21 [OVM19] | inhibition at 10 µM ([2]; Table 1d): 54%; inhibition at 25 µM ([2]; Table 1b): 76%; inhibition at 50 µM ([2]; Table 1b): 77%; IC50 [2, 3]: 7.5 µM
4 | 9 | -20 | -32 | -3 | 17 | -6 | 48 | 10 | 1 | 66 | 41 | > 10 | -22 | 3 | -9 | 44 | 60 | 65 | 88 | 76 | O=C1c2ccccc2C(=O)c2nc(CS(=O)(=O)c3cccc(F)c3)c(CS(=O)(=O)c3cccc(F)c3)nc21 [OVM13] | inhibition at 10 µM ([2]; Table 1d): 35%; inhibition at 25 µM ([2]; Table 1b): 102%; inhibition at 50 µM ([2]; Table 1b): 94%; IC50 [2, 3]: 0.4 µM; IC50 ([2]; Ub-Rhodamine substrate at 0.1 μM, Table 2c): 0.4 µM
